Active and inactive are the calls of the source. No cut-off for these calls is given here.
How the values were obtained:
Zika virus [1] = assay: Antiviral activity against ZIKV ZG-01 infected in A549 cells preincubated for 1 hr followed by replacement with fresh media containing compound for 48 hrs by crystal violet staining based plaque assay; assay type: functional, organism-based; details: time 49.0 hrs
[2] = Cytotoxicity against human A549 cells assessed as reduction in cell viability incubated for 48 hrs by MTT assay; assay type: toxicity, cell-based
Zika virus [3] = assay: Antiviral activity against ZIKV ZG-01 infected in JEG-3 cells preincubated for 1 hr followed by replacement with fresh media containing compound for 48 hrs by crystal violet staining based plaque assay; assay type: functional
Zika virus [4] = assay: Antiviral activity against ZIKV ZG-01 infected in A549 cells assessed as reduction in viral replication at 20 uM preincubated for 1 hr followed by replacement with fresh media containing compound for 48 hrs by RT-PCR analysis; assay type: functional; set-up: scale not given: the % may be the effect or the level left; details: time 49 hrs
Zika virus [5] = assay: Antiviral activity against ZIKV ZG-01 infected in SNB-19 cells assessed as reduction in viral envelope protein expression at 5 uM by immunofluorescence assay; assay type: functional, organism-based
Zika virus [6] = assay: Antiviral activity against ZIKV ZG-01 infected in SNB-19 cells assessed as reduction in number of viral positive cells at 5 uM by immunofluorescence assay; assay type: functional, organism-based
Zika virus [7] = assay: Antiviral activity against ZIKV ZG-01 infected in JEG-3 cells assessed as reduction in number of viral positive cells at 5 uM by immunofluorescence assay; assay type: functional, organism-based
Zika virus [8] = assay: Antiviral activity against ZIKV ZG-01 infected in JEG-3 cells assessed as reduction in viral envelope protein level at 1 to 20 uM after 48 hrs by Western blot assay; assay type: functional, organism-based; details: dose 1-20 µM
Zika virus [9] = assay: Antiviral activity against ZIKV ZG-01 infected in SNB-19 cells assessed as reduction in viral envelope protein level at 10 uM after 18 to 48 hrs by Western blot assay; assay type: functional, organism-based; details: time 18-48 hrs
Zika virus [10] = assay: Antiviral activity against ZIKV ZG-01 infected in JEG-3 cells assessed as reduction in viral envelope protein level at 10 uM after 18 to 48 hrs by Western blot assay; assay type: functional, organism-based; details: time 18-48 hrs
[11] = Toxicity in Ifnar1 knockout C57BL/6 mouse assessed as corneal opacities at 60 mg/kg administered for 7 days; assay type: organism-based; details: in vivo, 168 h, time 7 day
Zika virus [12] = assay: Antiviral activity against ZIKV ZG-01 infected in Ifnar1 knockout C57BL/6 mouse assessed as reduction in number of animal paralysis at 20 mg/kg, iv administered daily for 7 days; assay type: functional, organism-based; details: time 7.0 day
Zika virus [13] = assay: Antiviral activity against ZIKV ZG-01 infected in Ifnar1 knockout C57BL/6 mouse assessed as reduction in duration of animal paralysis at 20 mg/kg, iv administered daily for 7 days; assay type: functional, organism-based; details: time 7.0 day
Zika virus [14] = assay: Antiviral activity against ZIKV ZG-01 infected in Ifnar1 knockout C57BL/6 mouse assessed as increase in animal survival at 20 mg/kg, iv administered daily for 7 days; assay type: functional, organism-based; details: time 7.0 day
Zika virus [15] = assay: Antiviral activity against ZIKV ZG-01 infected in Ifnar1 knockout C57BL/6 mouse assessed as reduction in mortality rate at 20 mg/kg, iv administered daily for 7 days; assay type: functional, organism-based; details: time 7.0 day
Zika virus [16] = assay: Antiviral activity against ZIKV ZG-01 infected in Ifnar1 knockout C57BL/6 mouse assessed as reduction in weight loss at 20 mg/kg, iv administered daily for 7 days and measured upto 12 dpi; assay type: functional, organism-based; details: time <= 12.0 day
Zika virus [17] = assay: Antiviral activity against ZIKV ZG-01 infected in Ifnar1 knockout C57BL/6 mouse assessed as reduction in brain viral RNA at 20 mg/kg, iv administered daily for 7 days and measured upto 12 dpi by RT-qPCR analysis; assay type: functional, organism-based; details: time <= 12.0 day
Zika virus [18] = assay: Antiviral activity against ZIKV ZG-01 infected in Ifnar1 knockout C57BL/6 mouse assessed as reduction in neuronal necrosis by measuring pyknosis at 20 mg/kg, iv administered daily for 7 days and measured upto 12 dpi by H and E staining based analysis; assay type: functional, organism-based; details: time <= 12.0 day
Zika virus [19] = assay: Antiviral activity against ZIKV ZG-01 infected in Ifnar1 knockout C57BL/6 mouse assessed as reduction in neuronal necrosis by measuring karyolysis at 20 mg/kg, iv administered daily for 7 days and measured upto 12 dpi by H and E staining based analysis; assay type: functional, organism-based; details: time <= 12.0 day
Zika virus [20] = assay: Antiviral activity against ZIKV ZG-01 infected in Ifnar1 knockout C57BL/6 mouse assessed as reduction in microglia activation by measuring Iba-1 expression at 20 mg/kg, iv administered daily for 7 days by immunohistochemistry analysis; assay type: functional, organism-based; details: time 7.0 day
Zika virus [21] = assay: Antiviral activity against ZIKV ZG-01 infected in human SNB-19 cells assessed as reduction in IL-1beta expression at 1 to 5 uM by RT-PCR analysis; assay type: functional, organism-based; details: dose 1-5 µM
Zika virus [22] = assay: Antiviral activity against ZIKV ZG-01 infected in human SNB-19 cells assessed as reduction in TNFalpha expression at 1 to 5 uM by RT-PCR analysis; assay type: functional, organism-based; details: dose 1-5 µM
Zika virus [23] = assay: Antiviral activity against ZIKV ZG-01 infected in human JEG-3 cells assessed as reduction in IL-1beta expression at 1 to 5 uM by RT-PCR analysis; assay type: functional, organism-based; details: dose 1-5 µM
Zika virus [24] = assay: Antiviral activity against ZIKV ZG-01 infected in human JEG-3 cells assessed as reduction in IFNgamma expression at 1 to 5 uM by RT-PCR analysis; assay type: functional, organism-based; details: dose 1-5 µM
Zika virus [25] = assay: Antiviral activity against ZIKV ZG-01 infected in human SNB-19 cells assessed as reduction in IL-1beta release at 1 to 5 uM by ELISA; assay type: functional, organism-based; details: dose 1-5 µM
Zika virus [26] = assay: Antiviral activity against ZIKV ZG-01 infected in human SNB-19 cells assessed as reduction in TNFalpha release at 1 to 5 uM by ELISA; assay type: functional, organism-based; details: dose 1-5 µM
Zika virus [27] = assay: Antiviral activity against ZIKV ZG-01 infected in human JEG-3 cells assessed as reduction in TNFalpha release at 1 to 5 uM by ELISA; assay type: functional, organism-based; details: dose 1-5 µM
SNB-19 = assay: Antiinflammatory activity in human SNB-19 cells assessed as reduction in IL-1beta expression by RT-PCR analysis; assay type: functional, cell-based
JEG-3 [28] = assay: Antiinflammatory activity in human JEG-3 cells assessed as reduction in TNFalpha expression by RT-PCR analysis; assay type: functional, cell-based
JEG-3 [29] = assay: Antiinflammatory activity in human JEG-3 cells assessed as reduction in IFNgamma expression by RT-PCR analysis; assay type: functional, cell-based
Zika virus [30] = assay: Antiviral activity against ZIKV ZG-01 infected in human SNB-19 cells assessed as reduction in cell pyroptosis; assay type: functional, organism-based
Zika virus [31] = assay: Antiviral activity against ZIKV ZG-01 infected in human JEG-3 cells assessed as reduction in cell pyroptosis; assay type: functional, organism-based
Zika virus [32] = assay: Antiviral activity against ZIKV ZG-01 infected in human SNB-19 cells assessed as reduction in GSDME cleavage by Western blot analysis; assay type: functional, organism-based; details: dose 1-20 µM
Zika virus [33] = assay: Antiviral activity against ZIKV ZG-01 infected in human JEG-3 cells assessed as reduction in GSDME cleavage by Western blot analysis; assay type: functional, organism-based; details: dose 1-20 µM
HEK293T = assay: Inhibition of ZIKV RNA polymerase NS5 expressed in HEK293T cells co-transfected with Gluc-reporter gene at 20 uM incubated for 24 hrs by Dual-glo luminescence assay; assay type: cell-based; details: Zika virus
HEK-293T = assay: Effect on gaussia luciferase expression in HEK293T cells at 1 to 10 uM; assay type: functional, cell-based; details: Homo sapiens, dose 1-10 µM

Compound: C[C@]1(O)CC2=C(C[C@@]1(C)O)C(=O)c1c(O)cc(N3CCC(c4ccccc4)CC3)c(O)c1C2=O
- Activity (Zika virus [1]): Dose-Dependent Effect
- CC50 at 48 h [2]: > 50 µM
- EC90 (Zika virus [3]; ZG-01, JEG-3, time 49 hrs): 6.4 µM
- Activity (Zika virus [3]; time 49.0 hrs): Dose-Dependent Effect
- Activity (Zika virus [4]): 100%
- Activity (Zika virus [5]): Active
- Activity (Zika virus [6]): Active
- Activity (Zika virus [7]): Active
- Activity (Zika virus [8]): Active
- Activity (Zika virus [9]): Active
- Activity (Zika virus [10]): Active
- Activity [11]: Non-Toxic
- Activity (Zika virus [12]): Active
- Activity (Zika virus [13]): Active
- Activity (Zika virus [14]): Active
- Activity (Zika virus [15]): Active
- Activity (Zika virus [16]): Active
- Activity (Zika virus [17]): Active
- Activity (Zika virus [18]): Active
- Activity (Zika virus [19]): Active
- Activity (Zika virus [20]): Active
- Activity (Zika virus [21]): Active
- Activity (Zika virus [22]): Active
- Activity (Zika virus [23]): Active
- Activity (Zika virus [24]): Active
- Activity (Zika virus [25]): Active
- Activity (Zika virus [26]): Active
- Activity (Zika virus [27]): Active
- Activity (SNB-19): inactive
- Activity (JEG-3 [28]): inactive
- Activity (JEG-3 [29]): inactive
- Activity (Zika virus [30]): Active
- Activity (Zika virus [31]): Active
- Activity (Zika virus [32]): Dose-Dependent Effect
- Activity (Zika virus [33]): Dose-Dependent Effect
- inhibition (HEK293T): Dose-Dependent Effect
- Activity (HEK-293T): inactive

— ChEMBL document CHEMBL5620422, “Design, synthesis, and biological evaluation of a series of new anthraquinone derivatives as anti-ZIKV agents” (Eur J Med Chem, 2023)
